Each structure is given as a SMILES string. Where two headings read alike, the source gives them in different places.

Series [1] addresses T1, Aβ1–42 peptide (Homo sapiens, UniProt P05067). As to conditions: cited from earlier work.
Series [2] deals with T1, Aβ1–42 peptide. Nature of the series: Inhibition of self-mediated Aβ1–42 aggregation, Thioflavin T fluorescence assay. It counts as biochemical. On the set-up: Amyloid-β peptide (1–42) was purchased from GeneCust; purchased GeneCust. As to conditions: read-out: Inhibition of Aβ1–42 Aggregation (%) Self-Aβ Aggr. The method, then:
(§1) The studied compounds (1a–e) were tested in vitro to evaluate their activity as inhibitors of Aβ1-42 peptide aggregation, through the Thioflavin T (ThT) fluorescence assay. This method is based on the strong ability of the dye ThT to bind β-amyloid fibrils and oligomers through ionic and hydrophobic interactions, while its interaction with β-amyloid monomers is extremely weak. The intercalation of compounds in the β-sheet structure of amyloid protein may prevent fibrils aggregation and ThT binding, and it is evaluated by fluorimetry. The fluorescence emission measurements were performed after overnight incubation of the self-mediated or Cu^2+-induced Aβ fibril aggregates with the studied compounds.
(§2) The inhibition of β-amyloid (Aβ) aggregation was studied through the Th-T fluorescence assay, which was performed using a Varian Cary Eclipse fluorimeter at the following wavelengths: excitation (446 nm) and emission (485 nm). Amyloid-β peptide (1–42) was purchased from GeneCust as lyophilized powder stored at −20 °C.
(§3) The method used is based on thioflavin T (ThT) fluorescence emission, which depends on the interaction of this dye with Aβ fibrils. The assay is performed with the Aβ1–42 peptide sample, which was previously prepared by solubilization of its lyophilized powder in 1,1,1,3,3,3–hexafluoro-2-propanol (HFIP), an organic solvent useful to solubilize and monomerize the β-sheets protein aggregates. After 24 h, the solution was divided into Eppendorf tubes kept in ice, and then, HFIP was left to evaporate overnight (T = 25 °C). The resultant films were stored in the freezer. […] Compounds were dissolved in MeOH (1 mg/mL) and diluted with phosphate buffer to reach a ligand stock solution of 480 μM. Two different types of experiments were prepared in a final volume of 60 μL: control ligand assays (Aβ1–42 aggregation in the absence of inhibitor) and ligand assays (effect of ligand on Aβ1–42 aggregation). For each experiment, a blank sample without Aβ1–42 was used to monitor the effect of the compounds in fluorescence. To study the inhibition of aggregation in the presence of Cu^2+, which is known to promote it, an intermediate stock solution of CuCl2 in phosphate buffer (240 µM) was prepared. Then, it was aliquoted to obtain a final concentration of 40 µM in the samples. All samples were incubated in a water bath for 24 h at 37 °C. Then, 180 µL of ThT (5 µM) in glycine-NaOH buffer (50 mM, pH = 8.5) is added to each solution and 200 µL of it is placed in a 96-well plate (BD Falcon) to be read with the fluorimeter. After 5 min of incubation with ThT, fluorescence was measured at 446 nm (ʎ excitation) and 485 nm (ʎ emission).

In series [3] the target is T1, Aβ1–42 peptide. In words: Inhibition of Cu^2+-induced Aβ1–42 aggregation, Thioflavin T fluorescence assay. Format: biochemical. As to conditions: compounds 80 μM, with copper 40 μM; ThT fluorescence; mean of two independent measurements in duplicate; read-out: Inhibition of Aβ1–42 Aggregation (%) Cu-Induced Aβ Aggr. Details: Amyloid-β peptide (1–42) was purchased from GeneCust; purchased GeneCust. How it is done: as §1, §2, §3

The nature of series [4]: Radical scavenging activity, DPPH method. It counts as biochemical. The conditions noted are these: MeOH, 30 min, r.t., mean ± SD of 3 independent experiments. From the text: Commercial ferulic acid (FA) and all the newly synthesized compounds 1a–e were studied for their radical scavenging activity, following the protocol previously reported. The activity of each compound is expressed as EC50 and is related to its interaction with the free stable radical 2,2-diphenyl-1-picrylhydrazyl (DPPH•).
For the physicochemical and biological studies, analytical grade reagents and solvents were supplied by Sigma-Aldrich (St. Louis, MO, USA), Fluka (Buchs, Switzerland) and Acros (Geel, Belgium). They were used as received without any purification. The antioxidant activity assay was performed in a quartz cell of 1 cm path length with a Perkin-Elmer Lambda 35 UV–Vis spectrophotometer equipped with a temperature programmer PTP1+1 Peltier System (T = 25.0 ± 0.1 °C).
Compounds were evaluated for their radical scavenging activity by the Blois method using DPPH (2,2-diphenyl-1-picrylhydrazyl), a stable free-radical. It absorbs in methanol solution at 517–520 nm and it is a scavenger for other radicals converting itself in the reduced form DPPHH. The assay consists of preparing solutions of increasing concentration of each compound starting from a stock solution (2–3 × 10^−4 M), adding to them 2.5 mL DPPH (0.002% in MeOH, 50–100 µM) and the necessary volume of MeOH to reach the final volume 3.5 mL for each sample. The control sample was made up of DPPH and MeOH. Solutions were protected from light at r.t. for 30 min and then absorbance was measured at 517 nm with a Perkin Elmer Lambda 35 UV–Vis spectrophotometer, using methanolic solution as the blank in the other cell. All the studied compounds have good solubility in MeOH, so their solutions could be prepared. The assay was repeated three times for all compounds and the antioxidant activity, expressed as EC50, was calculated by Equation (1). %AA = ((ADPPH − Asample)/ADPPH) × 100,(1)
On the technique in general: The DPPH test is a chemical assay of radical scavenging.

Details of series [5]: method as in PMID 25994066. The conditions noted are these: DPPH method; read-out: Radical Scavenging Activity (EC50); cited from earlier work.
Details of series [6]: method as in doi:10.1039/C7NJ00661F, doi:10.1016/j.tca.2004.06.016, doi:10.1021/je101075q. As to conditions: aqueous medium and/or different ionic strength; cited from earlier work.
Series [7] in a line: Cu^2+ complexation, potentiometric / spectrophotometric titration. It counts as physicochemical. From the text: (§4) The chelating ability of FA and of selected compounds 1a and 1d was studied by using the same experimental techniques (potentiometry, UV–Vis spectrophotometry) and experimental medium used for the titration of the ligand alone (20% w/w DMSO/water).
(§5) Alterations in the deprotonation profiles of the ligand titration curves due to the presence of the metal ions are evident in Figure 2, since the curves for the M/L systems appear well below that of FA for a > −1 (M = Fe) or a > 0 (M = Cu). This evidence supports the formation of metal complexes with the deprotonated (L^−) and mono-protonated (HL) forms of the ligand, whose stability order (Fe > Cu) follows the expected trend. Equilibrium models obtained from the fitting analysis of the potentiometric curves (M = Fe, Cu) and the UV–Vis spectral data (M = Fe, Cu) are reported in Table 2.
(§6) Both compounds 1a and 1d have similar chelating capacities towards iron and copper, which are also analogous to those of FA.
(§7) As concerns the metal chelation studies, potassium hydrogen phthalate (C8H5KO4, p.a.) was acquired from BDH, whereas dimethylsulfoxide (DMSO, dried, p.a.) and potassium chloride (KCl, p.a.) were supplied by Sigma-Aldrich. Aqueous solutions of metal ions were prepared starting from 1000 ppm standards (Titrisol, Sigma-Aldrich), to obtain solutions FeCl3 0.018 M and CuCl2 0.015 M. The metal content of solutions was evaluated by atomic absorption. Iron stock solution was prepared with an excess of acid chloride to avoid hydrolysis and its concentration in HCl was determined by the usual standard-addition method using 0.1M HCl (Titrisol). The 0.1M HCl solution, used in calibration of the glass electrode and in spectrophotometric titrations, was prepared from a Titrisol ampoule. The titrant was prepared from carbonate free commercial concentrate (Titrisol, KOH 0.1 M ampoules). The KOH solution was standardized by titration with a solution of potassium hydrogen phthalate using Gran’s method and it was rejected when the percentage of carbonate was greater than 0.5% of the total amount of base. The potentiometric studies were performed with an automated potentiometric apparatus controlled by PASAT program and containing a Crison micropH 2002 millivoltmeter, a Crison microBu 2031 burette and a Haake thermostatic bath (T = 25.0 ± 0.1 °C). The spectrophotometric titrations were carried out with a Perkin-Elmer Lambda 35 spectrophotometer.
(§8) Both glass and Ag/AgCl reference electrodes were previously conditioned in different DMSO/H2O mixtures of increasing DMSO % concentration and the response of the glass electrode was evaluated by strong acid–strong base (HCl/KOH) calibrations with the determination of the Nernst parameters by Gran’s method. […] The spectrophotometric measurements were carried out in a 250–450 nm wavelength range at pH ca. 2.5–11.8. Under the stated experimental conditions, the pKw value (14.27) was determined and subsequently used in the computations. The stepwise protonation constants of the ligands, Ki = [HiL]/[Hi-1L][H], and the overall metal complex stability constants, β (MmHhLl) = [MmHhLl]/[M]^m[H]^h[L]^l, were calculated by fitting the pH-potentiometric and spectrophotometric data with, respectively, the Hyperquad 2008 [41] and Psequad programs. The metal hydrolysis model was determined under the defined experimental conditions (I = 0.1 M KCl, 20% w/w DMSO/H2O, T = 25.0 ± 0.1 °C) and the following values of stability constants were included in the fitting of experimental data towards the equilibrium models related to the Fe^3+/L and Cu^2+/L systems: log β (FeH-2) = −6.78, log β (FeH-3) = −10.78; log β (Cu2H-2) = −9.94. The species distribution curves were obtained with the Hyss program.

The nature of series [8]: Fe^3+ complexation, potentiometric / spectrophotometric titration. It counts as physicochemical.
Source text: as §4, §5, §6, §7, §8

Setting [9] is: compounds 80 μM, without copper, ThT fluorescence, mean of two independent measurements in duplicate.
[10] abbreviates: T = 25.0 ± 0.1 °C, I = 0.1 M KCl, 20% w/w DMSO/water, pH-potentiometric (FA), UV–Vis (1a, 1d).
Setting [11] is: T = 25.0 ± 0.1 °C, I = 0.1 M KCl, 20% w/w DMSO/water, pH-potentiometric data.
Setting [12] is: pH 7.4, CL/CM = 10, CM = 10^−6 M.

T1 sequence (P05067 672-713): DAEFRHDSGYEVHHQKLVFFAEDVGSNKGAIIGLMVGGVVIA

Broadly, the inhibition is the drop in the measured response relative to a control, in per cent. `Nc1c2c(nc3ccccc13)CCCC2` [Tacrine, reference compound]: on Aβ1–42 peptide [1], the “Inhibition of Aβ1–42 Aggregation (%) Self-Aβ Aggr.” value is 22.8%. The inhibition at 80 µM at Aβ1–42 peptide [2] turned out to be 21.5%.

Usually melting point stands for the temperature, or range, at which the solid turns liquid. Usually EC50 stands for the concentration needed to bring the measured effect to its halfway point. Take `COc1cccc(CONC(=O)/C=C/c2ccc(O)c(OC)c2)c1` [Compound 1b, (E)-3-(4-hydroxy-3-methoxyphenyl)-N-((3-methoxybenzyl)oxy)acrylamide]: the melting point was 63 to 65 °C. Also, the inhibition at 80 µM on Aβ1–42 peptide [2] (setting [9]) came out at 52.8%. For the same molecule, the inhibition at 80 µM at Aβ1–42 peptide [3] worked out at 69.5%. In addition, it took 40 ± 2 µM to reach a half-maximal effect in [4] (EC50).

Regarding `COc1cc(/C=C/C(=O)NOCc2ccc(Cl)cc2Cl)ccc1O` [Compound 1e, (E)-N-((2,4-dichlorobenzyl)oxy)-3-(4-hydroxy-3-methoxyphenyl)acrylamide], the melting point was 164.3 to 166.5 °C. Further, the inhibition at 80 µM at Aβ1–42 peptide [2] (setting [9]) stood at 28.3%. Besides, the inhibition at 80 µM on Aβ1–42 peptide [3] amounted to 77%. For the same molecule, in series [4], a half-maximal effect (EC50) was put at 32 ± 3 µM.

In the case of `O=C1O[C@H]([C@@H](O)CO)C(O)=C1O` [Ascorbic acid], the EC50 in [5] was 25 ± 1 µM.

Take `COc1cc(/C=C/C(=O)NOCc2ccccc2C(F)(F)F)ccc1O` [Compound 1c, (E)-3-(4-hydroxy-3-methoxyphenyl)-N-((2-(trifluoromethyl)benzyl)oxy)acrylamide]: the melting point lay in the range of 76 to 77 °C. Further, the inhibition at 80 µM at Aβ1–42 peptide [2] (setting [9]) was 51%. For the same molecule, at Aβ1–42 peptide [3], the inhibition at 80 µM came out at 68.8%. This molecule also displayed an EC50 in series [4] of 34 ± 1 µM.

As to `COc1cc(/C=C/C(=O)O)ccc1O` [FA, (E)-4-hydroxy-3-methoxy cinnamic acid, reference compound], in [6], the “log K1 previously reported” value is 8.77–8.94 and the “log K2 previously reported” value is 4.46–4.56. In series [7] (setting [10]), the “log β (CumHhLl), species (1–12)” value is 1.90(8) and the “log β (CumHhLl), species (101)” value is 6.52(8). In addition, the “log β (CumHhLl), species (102)” value in [7] (T = 25.0 ± 0.1 °C, I = 0.1 M KCl, 20% w/w DMSO/water, pH-potentiometric (FA), UV–Vis (1d)) is given as 11.14(6). Moreover, in series [7] (setting [11]), the “log β (CumHhLl), species (111)” value is 13.30(4). The “pM (Cu^2+), pM = −log [M]” value in [7] (setting [12]) is reported as 6.2. The molecule also displayed an EC50 in series [4] of 36 ± 2 µM. In series [8] (T = 25.0 ± 0.1 °C, I = 0.1 M KCl, 20% w/w DMSO/water), the “log β (FemHhLl), species (1–22)” value is 7.81(8). In series [8] (setting [10]), the “log β (FemHhLl), species (101)” value is 12.15(6) and the “log β (FemHhLl), species (102)” value is reported as 20.31(6). Further, in series [8] (setting [11]), the “log β (FemHhLl), species (103)” value was 26.70(8). Further, in [8] (setting [12]), the “pM (Fe^3+), pM = −log [M]” value amounted to 17.4. For the same molecule, the “free iron in the Fe^3+/L system” value in [8] (pH ca. 2, species distribution) is recorded as “ca. 90%”.

The record behind these values is paper PMC8512147, “Multifunctional Small Molecules as Potential Anti-Alzheimer’s Disease Agents” (Molecules, 2021).
